Measurements from PMC11971408, “Cryo-EM analyses unveil details of mechanism and targocil-II mediated inhibition of S. aureus WTA transporter TarGH” (Nature Communications, 2025).

Key:
[1] = molecular target: T1, TarH (TarGH nucleotide binding domain) (Staphylococcus aureus, UniProt Q2FJ01); assay: malachite green ATPase assay of purified TarGH (Michaelis-Menten); assay type: biochemical
T1 construct: gene tagH; full-length TarH (residues 1–264) in TarG2H2 heterotetramer; with TarG (A0A0H2XIF1)
T1 sequence (Q2FJ01 whole entry, the tested form may be a part): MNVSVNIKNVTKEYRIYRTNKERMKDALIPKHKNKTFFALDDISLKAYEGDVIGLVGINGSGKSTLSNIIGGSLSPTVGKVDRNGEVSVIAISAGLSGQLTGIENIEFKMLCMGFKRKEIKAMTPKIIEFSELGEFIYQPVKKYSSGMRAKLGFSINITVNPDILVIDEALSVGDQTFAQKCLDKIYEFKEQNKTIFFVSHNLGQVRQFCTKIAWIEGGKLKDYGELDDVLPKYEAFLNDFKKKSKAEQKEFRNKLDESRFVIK
T1 sequence (A0A0H2XIF1 1-270 partner): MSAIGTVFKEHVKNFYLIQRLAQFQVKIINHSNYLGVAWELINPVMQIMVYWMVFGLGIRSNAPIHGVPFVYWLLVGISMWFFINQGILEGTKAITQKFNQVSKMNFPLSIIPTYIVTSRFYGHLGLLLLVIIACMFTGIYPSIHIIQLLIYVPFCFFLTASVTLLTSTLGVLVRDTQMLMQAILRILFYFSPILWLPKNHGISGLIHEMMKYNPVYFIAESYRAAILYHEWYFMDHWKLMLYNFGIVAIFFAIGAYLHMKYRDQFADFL

[2] = molecular target: T1, TarH (TarGH nucleotide binding domain); assay: cryo-EM structure at […] Å
[3] = molecular target: T2, TarG (TarGH WTA transporter, transmembrane domain) (Staphylococcus aureus, UniProt A0A0H2XIF1); assay: cryo-EM structures ([…] Å with AMP-PNP; […] Å with ATPγS), MST; IC50 from malachite green ATPase assay of purified TarGH; assay type: biochemical
T2 construct: gene tagG; full-length TarG with N-terminal His tag, co-expressed with TarH (residues 1–264) as TarG2H2 heterotetramer; with TarH (Q2FJ01)
T2 sequence (A0A0H2XIF1 1-270): as the sequence (A0A0H2XIF1 1-270 partner) above
T2 sequence (Q2FJ01 whole entry partner, the tested form may be a part): as the sequence (Q2FJ01 whole entry, the tested form may be a part) above

For Nc1ncnc2c1ncn2[C@@H]1O[C@H](COP(=O)(O)OP(=O)(O)OP(=O)(O)O)[C@@H](O)[C@H]1O [ATP], the “malachite green ATPase assay of purified TarGH (Michaelis-Menten)” value [1] was ~ 70 mol Pi/min mol protein.
For Nc1ncnc2c1ncn2[C@@H]1O[C@H](CO[P@](=O)(O)O[P@](=O)(O)O[P@@](=O)(O)S)[C@@H](O)[C@H]1O [ATPγS], the “cryo-EM structure at 2.3 Å” value [2] was “ATPγS is well resolved at the TarH dimer interface, forming characteristic interactions with the ABC motifs”.
Cc1c(CC(=O)N2CCC[C@H]2C(=O)O)c(=O)oc2c(C)c3occ(-c4ccc(Cl)cc4)c3cc12 [targocil-II] showed an IC50 [3] of 6.5 ± 1.2 µM.
